Experimental data from publication PMC8795197, “Safety and activity of WX-0593 (Iruplinalkib) in patients with ALK- or ROS1-rearranged advanced non-small cell lung cancer: a phase 1 dose-escalation and dose-expansion trial” (Signal Transduction and Targeted Therapy, 2022).

Legend:
Ba/F3 (EML4-ALK-L1196M) = test: Cell proliferation inhibition assay; format: cell-based
Ba/F3 (EML4-ALK-C1156Y) = test: Cell proliferation inhibition assay; format: cell-based
[1] = test system: NCI-H1975 (EGFR mutant L858R/T790M); test: Cell proliferation inhibition assay; format: cell-based
[2] = test system: ALK+ human lung cancer LU-01-0015 xenograft; test: PDX model, anti-tumor activity; format: in vivo
Procedure: (§1) The anti-tumor activity of WX-0593 was evaluated in two PDX models. […] WX-0593 was well-tolerated at all concentrations.

[3] = test system: ALK+ human lung cancer LU-01-0319 xenograft; test: PDX model, anti-tumor activity; format: in vivo
Procedure: as §1

[4] = Tissue distribution of total radioactivity after [14C]WX-0593; format: in vivo, SD rats
Procedure: At 0.5 h after drug administration, the total radioactivity was mainly distributed in the gastrointestinal tract, liver, oesophagus, and adrenal glands. […] The distribution of total radioactivity in other tissues in descending order was lungs, kidneys, spleen, pancreas, lymph nodes, heart, uterus and ovaries, plasma, thymus, prostate, whole blood, skeletal muscles, skin, testis and epididymis, and whole brain. […] Only the total radioactivity of skeletal muscles (1417 ng Eq./g), whole blood (1366 ng Eq./g), body fat (1079 ng Eq./g), testis and epididymis (619 ng Eq./g), and whole brain (114 ng Eq./g) were lower than that of plasma at the same time point. […] At the last sampling time point (72 h), most total radioactivity had been cleared from the body and only the spleen, adrenal glands, liver, testis and epididymis, kidneys, lymph nodes, uterus and ovaries, intestinal wall, lungs, and thymus had been traced small amount of radioactivity.

[5] = Metabolite identification in plasma; format: in vivo, cynomolgus monkey; settings: oral WX-0593
From the text: Under current experimental conditions, 1 metabolite in addition to the parent drug was detected in monkey plasma: a demethylation metabolite, M2 (MW = 554.23, P - CH2). Based on the % peak area from mass spectrometry, the drug exists primarily as the parent drug in the plasma of both male and female monkeys (99.06% in females and 99.47% in males). Metabolite M2 (0.94% in females and 0.53% in males) was a secondary metabolite. Based on the types of metabolites, it is speculated that WX-0593 is mainly metabolized through demethylation after oral administration in monkeys. There was no significant difference in metabolites between female and male monkeys.

in vivo [6] = test: in vivo; parameters: species or system nude mice; settings: mouse
Procedure: The severely toxic dose in 10% of the animals (STD10) in rodents was > 30 mg/kg. At a dose of 10 mg/kg/day, AUC0-24h (Day 28) was 16800 h·ng/mL in males and 17300 h·ng/mL in females, which is 4.5 times and 4.7 times of the exposure at the effective dose in mice (2.5 mg/kg, AUC0-24h: 3700 h·ng/mL). At a dose of 30 mg/kg/day, AUC0-24h (Day 28) was 27100 h·ng/mL in males and 42400 h·ng/mL in females, which is 7.3 times and 11.5 times of the exposure at the effective dose in nude mice (2.5 mg/kg, AUC0-24h: 3700 h·ng/mL).

in vivo [7] = settings: male
[8] = Single-dose toxicity study (acute toxicity)
[9] = 0.5 h, oral [14C]WX-0593 8 mg/kg

Structure (SMILES): COc1cc(N2CCC3(CCN(C)CC3)CC2)ccc1Nc1ncc(Cl)c(Nc2ccccc2P(C)(C)=O)n1 [WX-0593]
- growth inhibition (Ba/F3 (EML4-ALK-L1196M)): significantly inhibits the growth
- growth inhibition (Ba/F3 (EML4-ALK-C1156Y)): significantly inhibits the growth
- growth inhibition [1]: somewhat inhibits the growth
- anti-tumor activity ([2]; 15 mg/kg, 10 mg/kg (D0–D7)/2.5 mg/kg (D8–D27), 5 mg/kg): significant anti-tumor activity
- body weight ([2]; all treatment arms): no significant decrease in weight
- anti-tumor activity ([3]; 1, 2.5 and 5 mg/kg): good anti-tumor activity
- mean body weight ([3]; all treatment arms): no significant decrease in mean weight
- total radioactivity relative to plasma, adrenal glands ([4]; 0.5 h): 8.76 times
- total radioactivity relative to plasma, intestinal wall ([4]; 0.5 h): 28.1 times
- total radioactivity relative to plasma, liver ([4]; 0.5 h): 9.96 times
- total radioactivity relative to plasma, oesophagus ([4]; 0.5 h): 9.07 times
- total radioactivity relative to plasma, stomach wall ([4]; 0.5 h): 18.6 times
- mean total radioactivity, adrenal glands [4, 9]: 13334 ng Eq./g
- mean total radioactivity, intestinal wall [4, 9]: 42737 ng Eq./g
- mean total radioactivity, liver [4, 9]: 15160 ng Eq./g
- mean total radioactivity, oesophagus [4, 9]: 13803 ng Eq./g
- mean total radioactivity, plasma [4, 9]: 1522 ng Eq./g
- mean total radioactivity, stomach wall [4, 9]: 28265 ng Eq./g
- total radioactivity, body fat ([4]; 3 h): 1079 ng Eq./g
- total radioactivity, plasma ([4]; 3 h): 2062 ng Eq./g
- total radioactivity, skeletal muscles ([4]; 3 h): 1417 ng Eq./g
- total radioactivity, testis and epididymis ([4]; 3 h): 619 ng Eq./g
- total radioactivity, whole blood ([4]; 3 h): 1366 ng Eq./g
- total radioactivity, whole brain ([4]; 3 h): 114 ng Eq./g
- mean total radioactivity, adrenal glands ([4]; 72 h): 1296 ng Eq./g
- mean total radioactivity, intestinal wall ([4]; 72 h): 129 ng Eq./g
- mean total radioactivity, kidneys ([4]; 72 h): 438 ng Eq./g
- mean total radioactivity, liver ([4]; 72 h): 922 ng Eq./g
- mean total radioactivity, lungs ([4]; 72 h): 103 ng Eq./g
- mean total radioactivity, lymph nodes ([4]; 72 h): 292 ng Eq./g
- mean total radioactivity, spleen ([4]; 72 h): 1883 ng Eq./g
- mean total radioactivity, testis and epididymis ([4]; 72 h): 504 ng Eq./g
- mean total radioactivity, thymus ([4]; 72 h): 95.8 ng Eq./g
- mean total radioactivity, uterus and ovaries ([4]; 72 h): 187 ng Eq./g
- % peak area from mass spectrometry in plasma ([5]; female monkeys): 99.06%
- % peak area from mass spectrometry in plasma ([5]; male monkeys): 99.47%
- murine effective dose (in vivo [6]): 2.5 mg/kg
- AUC(0-t) (in vivo [6]; nude, 2.5 mg/kg): 3700 ng·h/mL
- MTD (in vivo [7]): 200 mg/kg
- MTD as multiple of the effective dose ([8]; female animals): 10 times
- MTD as multiple of the effective dose ([8]; males): 40 times
